Results reported in US20250049819A1, “METHODS FOR TREATING AND PREVENTING C. DIFFICILE INFECTION” (Paratek Pharmaceuticals, Inc., priority 2016, published 2025).
In brackets after ≈: the same amount, converted by molar mass.

Assays:
Type in all cases: cell-based
[1] = test system: C. difficile strains (N = 27); assay: MIC by broth microdilution against C. difficile clinical isolates; conditions: Clostridioides difficile, 27 isolates
Method: (§1) The activity of omadacycline was tested in vitro against 27 clinical isolates of C. difficile. […] The experiments were carried out using broth and agar microdilution methods according to Clinical and Laboratory Standards Institute (CLSI) guidelines. […] Each test was run in duplicate.

[2] = test system: C. difficile strains (N = 27); assay: MIC by agar dilution against C. difficile clinical isolates; conditions: Clostridioides difficile, 27 isolates
Method: as §1

[3] = test system: C. difficile PCR ribotype 027 strain 210; assay: In vitro human gut model, C. difficile germination, proliferation and toxin production (Example 3); conditions: 430 mg/L once daily for 7 days
Description: An in vitro gut model was used to study the effects of omadacycline instillation on both normal microflora populations and C. difficile. This gut model has been validated against gut contents from sudden death victims and provides a very close simulation of bacterial activities and composition in different areas of the hindgut (Macfarlane et al., Microb. Ecol. 35, 180-7, 1998). The model consists of three vessels aligned in series, and top-fed with a complex growth medium. All three vessels are continuously stirred, anaerobically maintained at 37° C. and regulated to reflect in vivo differences, including pH, from proximal to distal colon. The three anaerobic fermentation vessels are maintained at increasing alkalinity (from pH 5.5±0.2 for vessel 1; pH 6.2±0.2 for vessel 2; and pH 6.8±0.2 for vessel 3). The increasing alkalinity in combination with the nutrient limited conditions are designed to simulate the human gut from the proximal to the distal colon. […] At this stage, dietary ingredients, prebiotics, pathogens and/or antibiotics may be added, and the bacterial populations monitored. Specific components of the gut flora and relevant pathogens may be closely monitored and their behavior analyzed. […]
Gut microbiota bacterial populations and C. difficile total viable counts and spore counts were enumerated daily by culture on selective and non-selective agars. C. difficile populations were monitored in all three vessels, and all other bacterial groups (total obligate anaerobes, total facultative anaerobes, lactose fermenting enterobacteriaceae, enterococci, total clostridia, lactobacilli, bifidobacteria, B. fragilis group) were monitored in vessels 2 and 3 only. […] C. difficile total viable counts and spores counts were monitored using viable counting and a differential alcohol shock viable count on selective agars.
From day 14 onwards C. difficile cytotoxin was measured using a quantitative VERO cell cytotoxicity assay. […] Concentrations of omadacyline were measured by large-plate bioassay using Wilkins Chalgren agar with Kocuria rhizophila as the indicator organism.

[4] = test system: gut microflora populations; assay: In vitro human gut model, gut microflora populations (Example 4)
Method: (§2) The gut model was inoculated with pooled fecal slurry (5 volunteers ≥60 years of age with no history of antibiotic therapy in the previous 3 months) and left for 2 weeks to allow the bacterial populations to achieve steady state. A single inoculum (˜10^7 cfu/mL) of C. difficile spores (PCR ribotype 027 strain 210) was added into vessel 1 of the gut model on day 14. One week later, on day 21, a second aliquot of C. difficile spores was added, and antibiotic instillation commenced. Model A (LHS) was exposed to moxifloxacin (43 mg/L, once daily, for 7 days) and Model B (RHS) was exposed to omadacycline (430 mg/L, once daily, for 7 days) commenced on day 21.
(§3) Bacterial populations in the gut model were monitored using selective agars to count viable bacterial colonies. Populations were monitored every other day for the first 2 weeks until the steady state was reached, and daily thereafter. C. difficile populations were monitored in all three vessels, and all other bacterial groups (total obligate anaerobes, total facultative anaerobes, lactose fermenting Enterobacteriaceae, Enterococci, total Clostridia, Lactobacilli, Bifidobacteria and B. fragilis group) were monitored in vessels 2 and 3 only. Vessel 3, which represents the distal colon, is of most physiological relevance in terms of propensity to induce CDI. C. difficile total viable counts and spores counts were monitored using viable counting and a differential alcohol shock viable count on selective agars. From day 14 onwards C. difficile cytotoxin was measured using a quantitative VERO cell cytotoxicity assay. Samples of 1 mL each were centrifuged at 16,000×g for 15 minutes, and the supernatants were removed. Six 1:10 serial dilutions (to 10^−6) of culture supernatants from the gut model were prepared. Twenty microliters of the appropriate dilution was added to VERO cell monolayers and a further 20 μL of C. sordellii antitoxin (diluted 1:10 in sterile distilled water) was placed in the corresponding antitoxin row. Monolayers were examined after 24 and 48 hours of incubation in 5% CO2, with a positive result indicated by the presence of cell rounding with concurrent neutralization of the effect by C. sordellii antitoxin. Cytotoxin titers (relative units, RU) were an arbitrary log10 scale, and the cytotoxin titer is reported in the highest dilution with >70% cell rounding, i.e. 10^0=1 RU, 10^−1=2 RU, 10^−2=3 RU. Samples were taken daily from day 21 onwards to determine antimicrobial concentrations in the gut model vessels by a bioassay. Concentrations of moxifloxacin were determined using Isosensitest agar with Escherichia coli as the indicator organism. Concentrations of omadacyline were determined using Wilkins Chalgren agar with Kocuria rhizophila as the indicator organism.

[5] = test system: C. difficile PCR ribotype 027 strain 210; assay: In vitro human gut model, C. difficile germination, proliferation and toxin production (Example 4)
Method: as §2, §3

[6] = vessels 2 and 3, once daily for 7 days

SMILES: CN(C)c1cc(CNCC(C)(C)C)c(O)c2c1C[C@H]1C[C@H]3[C@H](N(C)C)C(O)=C(C(N)=O)C(=O)[C@@]3(O)C(O)=C1C2=O (stereo in doubt) [Omadacycline]
- MIC90 ([1]; read-out: MIC90 by broth dilution): 0.06 µg/mL (≈ 0.108 µM)
- MIC50 ([1]; Wilkins-Chalgren broth, 48 hours anaerobic): 60 µg/mL (≈ 108 µM)
- MIC90 ([1]; Wilkins-Chalgren broth, 48 hours anaerobic, read-out: Broth Microdilution MIC90): 60 µg/mL (≈ 108 µM)
- MIC90 [2]: 0.12 µg/mL (≈ 0.216 µM)
- C. difficile vegetative cell proliferation ([3]; all three vessels): no vegetative cell proliferation observed
- signs of simulated C. difficile infection ([3]; all three vessels): did not lead to any signs of simulated C. difficile infection
- C. difficile toxin detection (VERO cell cytotoxicity assay) ([3]; any vessels): No toxin was detected
- recovery of populations after end of dosing ([4]; all populations): returned to pre-antibiotic exposure levels by the end of the experiment
- Enterobacteriaceae populations ([4]; particularly in vessel 2): increased during omadacycline exposure
- decline in B. fragilis group [4, 6]: ~8 log10 cfu/mL
- decline in Bifidobacteria [4, 6]: ~8 log10 cfu/mL
- decline in Enterococcus spp. / Enterococci populations [4, 6]: ~6 log10 cfu/mL
- decline in Lactobacilli [4, 6]: ~6 log10 cfu/mL
- decrease in Clostridia [4, 6]: ~5 log10 cfu/mL
- decrease in lactose fermenting Enterobacteriaceae [4, 6]: ~5 log10 cfu/mL
- overall decline in total anaerobe populations [4, 6]: ~5 log10 cfu/mL
- total facultative anaerobes [4, 6]: remained fairly stable throughout
- C. difficile spore germination / vegetative cell proliferation ([5]; all three vessels): no vegetative cell proliferation observed
- C. difficile toxin detection (VERO cell cytotoxicity assay) ([5]; all vessels): No toxin was detected
- signs of simulated CDI ([5]; once daily for 7 days, omadacycline 430 mg/L, moxifloxacin 43 mg/L): did not lead to any signs of simulated CDI
